From patent publication US8008487B2, “Substituted thieno[2,3-D]pyrimidines as fungicides” (priority 2004, dated 2011)

Legend:
Format in all cases: in vivo
Magnaporthe grisea = assay: whole plant or invertebrate; settings: Pyricularia oryzae, in Oryza sativa, foliar, 24 h, read-out: PYRIOR percent control of disease, 200 ppm on foliage, rice, one-day protectant test
[1] = system: Puccinia recondita tritici; assay: Leaf Rust of Wheat (PUCCRT), whole-plant fungicide test; settings: Puccinia recondita, 24 h, one-day protectant test, read-out: PUCCRT percent control of disease; for pest or weed control at 200 ppm: foliar, 200 ppm on foliage; for pest or weed control at 100 ppm: 100 ppm (footnote a)
Colletotricum lagenarium = assay: Cucumber Anthracnose (COLLLA), whole-plant fungicide test; settings: Cucumis sativus, 24 h, one-day protectant test, read-out: COLLLA percent control of disease; for pest or weed control at 200 ppm: foliar, 200 ppm on foliage
Leptosphaeria nodorum = assay: Glume Blotch of Wheat (LEPTNO), whole-plant fungicide test; settings: Parastagonospora nodorum, foliar, 24 h, 200 ppm on foliage, one-day protectant test, read-out: LEPTNO percent control of disease
Phytophthora infestans = assay: whole plant or invertebrate; settings: Phytophthora infestans, in Solanum lycopersicum, 24 h; for pest or weed control at 200 ppm: foliar, read-out: PHYTIN percent control of disease, 200 ppm on foliage, tomato, one-day protectant test
Erysiphe cichoracaerum = assay: Cucumber Powdery Mildew (ERYSCI), whole-plant fungicide test; settings: Erysiphe, foliar, 24 h, 200 ppm on foliage, one-day protectant test, read-out: ERYSCI percent control of disease

SMILES	pest or weed control at 200 ppm (Magnaporthe grisea) [%]	pest or weed control at 200 ppm [1] [%]	pest or weed control at 200 ppm (Colletotricum lagenarium) [%]	pest or weed control at 200 ppm (Leptosphaeria nodorum) [%]	pest or weed control at 200 ppm (Phytophthora infestans) [%]	pest or weed control at 200 ppm (Erysiphe cichoracaerum) [%]	pest or weed control at 100 ppm [1] [%]	pest or weed control at 100 ppm (Colletotricum lagenarium; 100 ppm (footnote a)) [%]	pest or weed control at 100 ppm (Phytophthora infestans; read-out: PHYTIN percent control of disease, 100 ppm (footnote a), tomato, one-day protectant test) [%]
CC(Nc1ncnc2scc(Cl)c12)c1ccc(OCC(F)(F)F)cc1 (centres unmarked) [Compound 73]	80 to 100	80 to 100	80 to 100	50 to 79	0 to 49	80 to 100	–	–	–
CC(Nc1ncnc2scc(Cl)c12)c1ccc(OCC(F)F)nc1 (centres unmarked) [Compound 74]	80 to 100	80 to 100	80 to 100	80 to 100	0 to 49	80 to 100	–	–	–
CC(Nc1ncnc2scc(Cl)c12)c1ccc(OCCF)nc1 (centres unmarked) [Compound 75]	80 to 100	80 to 100	50 to 79	0 to 49	0 to 49	80 to 100	–	–	–
CCC(Nc1ncnc2scc(Cl)c12)c1ccc(OC)nc1 (centres unmarked) [Compound 79]	80 to 100	80 to 100	0 to 49	0 to 49	0 to 49	0 to 49	–	–	–
CC(Nc1ncnc2scc(Cl)c12)c1cccnc1Cl (centres unmarked) [Compound 80]	80 to 100	80 to 100	50 to 79	0 to 49	0 to 49	80 to 100	–	–	–
COCC1CC1C(C)Nc1ncnc2scc(Cl)c12 (centres unmarked) [Compound 81]	–	–	–	–	–	–	80 to 100	–	–
CC(Nc1ncnc2scc(Cl)c12)c1ccc(OC(F)(F)F)cc1 (centres unmarked) [Compound 82]	–	80 to 100	0 to 49	0 to 49	0 to 49	80 to 100	–	–	–
COc1cc(F)ccc1C(C)Nc1ncnc2scc(Cl)c12 (centres unmarked) [Compound 83]	–	80 to 100	0 to 49	0 to 49	0 to 49	80 to 100	–	–	–
CC(Nc1ncnc2scc(Cl)c12)c1ccc(OCC(F)(F)F)nc1 (centres unmarked) [Compound 84]	–	–	–	–	–	–	80 to 100	–	–
COc1ccc(COCC2CC2C(C)Nc2ncnc3scc(Cl)c23)cc1 (centres unmarked) [Compound 85]	–	80 to 100	0 to 49	0 to 49	80 to 100	80 to 100	–	–	–
COc1ccc(OCC2CC2C(C)Nc2ncnc3scc(Cl)c23)cc1 (centres unmarked) [Compound 86]	80 to 100	80 to 100	80 to 100	50 to 79	0 to 49	80 to 100	–	–	–
CC(Nc1ncnc2scc(Cl)c12)C1CC1COCC(F)(F)F (centres unmarked) [Compound 87]	80 to 100	80 to 100	0 to 49	0 to 49	0 to 49	80 to 100	–	–	–
COc1ccc(C(C)Nc2ncnc3scc(SC)c23)cc1 (centres unmarked) [Compound 88, 5-Methylthio-N-[1-(4-methoxyphenyl)ethyl]thieno[2,3-d]pyrimidin-4-amine]	80 to 100	80 to 100	0 to 49	0 to 49	0 to 49	0 to 49	–	–	–
COc1ccc(C(C)Nc2ncnc3scc(S(C)(=O)=O)c23)cc1 (centres unmarked) [Compound 89, 5-Methanesulfonyl-N-[1-(4-methoxyphenyl)ethyl]thieno[2,3-d]pyrimidin-4-amine]	50 to 79	0 to 49	0 to 49	0 to 49	0 to 49	0 to 49	–	–	–
CC(Nc1ncnc2scc(Cl)c12)c1cnc(OCC(F)(F)F)s1 (centres unmarked) [Compound 90]	80 to 100	80 to 100	0 to 49	50 to 79	0 to 49	80 to 100	–	–	–
CC(Nc1ncnc2scc(Cl)c12)c1ccc(C(C)(C)C)cc1 (centres unmarked) [Compound 91]	80 to 100	80 to 100	–	80 to 100	–	80 to 100	–	50 to 79	50 to 79
